Results on six compounds are retold here after publication PMC7802229, “Alkaloid and benzopyran compounds of Melicope latifolia fruit exhibit anti-hepatitis C virus activities” (BMC Complementary Medicine and Therapies, 2021).

Broadly, the inhibition is the percentage by which the read-out fell short of the control. As a reminder, the IC50 is the midpoint of a concentration-inhibition curve. For orientation: CC50 means the concentration giving 50% cytotoxicity.

Structures are written as SMILES. Converted amounts (≈) assume the structure as drawn. “Also recorded” adds a separate entry of the source. Where two headings read alike, the source gives them in different places.

The subject of data set [1] is HCV life cycle (entry / post-entry). Kind of data set: Time-of-addition experiment. The conditions noted are these: 25 μg/ml; for inhibition at 25 µg/mL: Hepatitis C virus, mean ± SD of triplicate; for Mode of action: time of addition. It counts as cell-based. The method, then: A time addition experiment was performed to analyze the effect of the extract on the HCV life cycle. Entry inhibition was conducted by treated cells with extracts during viral inoculation to evaluate the inhibition in binding, entry and endocytosis. Post entry inhibition was conducted by treating cells with the extracts after viral inoculation. Supernatants were collected and viral titration and immunostaining was used to assess the mode of action.
(§1) Viral titration was performed by serially diluting the culture supernatant in DMEM medium and inoculating onto Huh7it-1 cells. After incubation for 41 h, the cells were fixed by 3.7% formaldehyde and permeabilized with 0.5% triton X-100 for 10 min. First antibody (HCV infected serum patient) was used in 1% bovine serum albumin (BSA) /2%BlockIce/ phosphate buffer saline (PBS) with a 300x dilution then incubated for 60 min. Second antibody (HRP-Goat anti human) was used in 1%BSA/2%BlockIce/PBS with a 400x dilution (50 μl/well) and then incubated for 60 min at room temperature. To visualize the infectious foci, 3,3′-diaminobenzidine (DAB) staining (DAB Thermo Scientific, USA) was used for 15 min until a brown color was observed. SPSS probit was used to calculate inhibition concentration 50% (IC50) values.

The subject of data set [2] is N-formylmethionylleucylphenylalanine-induced superoxide production. On the set-up: method as in PMID 17822293. The conditions noted are these: cited from earlier work.
For data set [3], the system named is murine leukemia P-388 cells. The arrangement: method as in PMID 34498963. The conditions noted are these: cited from earlier work.
Data set [4] concerns HCV NS3 protein. The data set is described as follows: Immunoblotting of HCV NS3 protein in infected Huh7it cells. It counts as cell-based, hepatitis C virus. Particulars: Huh7it-HCV infected cells MOI 0.5, various concentrations, 48 h. The protocol: Huh7it-1 cells were lysed with Ripa buffer and the amount of protein was checked using a bichincronic acid (BCA) assay kit. The proteins were separated in (sodium dodecyl sulfate polyacrylamide gel electrophoresis (SDS-PAGE) gel and transferred onto a PVDF membrane (Millipore, Bed-ford, MA, USA). Five percent skimmed milk was added to block non-specific binding and incubated for 60 min. First antibody, HCV NS3-specific mouse monoclonal antibody (clone H23; Abcam, Cambridge, MA, USA) and glyceraldehyde-3-phosphate dehydrogenase (GAPDH) antibody (MBL) was added and incubated for 1 h. The 0.05% PBST was used for membrane washing. Second antibody, HRP-conjugated goat anti mouse immunoglobulin (MBL) was incubated for 1 h and the respective protein was visualized using Clarity Western ECL substrate (Biorad). The chemical luminescence was detected using ImageQuant LAS 4000 (GE healthcare).
Culture of Huh7it-HCV infected cells (MOI = 0.5) was treated with various concentration of compounds. After 48 h of incubation, cells were subjected to western blot analysis using monoclonal antibody against HCV NS3 protein. GAPDH served as an internal control
Background: In western blotting, separated proteins are transferred to a membrane and probed.

The nature of data set [5]: Cytotoxicity assay (MTT). Type of data set: cell-based. The conditions noted are these: human, Huh7it-1 cells, mean ± SD of triplicate. The method, then:
The cytotoxicity analysis was assessed using MTT assay 3-(4,5-Dimethylthiazol-2-Yl)-2,5-Diphenyltetrazolium Bromide. Solutions with extract concentrations of 1000, 400, 100, 50, 10, 1and […] were added onto Huh7it-1 cells in 96 well plates. After 46 h incubation, the medium was removed and 150 μl/well of 10% MTT was added then incubated for 4 h. The purple precipitates were then dissolved in dimethyl sulfoxide (DMSO). The purple solution was measured for UV absorbance using a microplate reader at 560 nm. SPSS probit was used to calculate the cytotoxic concentration 50% (CC50).

The test system of data set [6] is HCV JFH1a. Kind of data set: Antiviral activity assay (HCV infection of Huh7it-1 cells, titre by immunostaining). It counts as cell-based, hepatitis C virus (genotype 2a). Particulars: for IC50: Hepatitis C virus, read-out: IC50 (anti-HCV activity); for Anti-HCV activity in words: highest concentration examined 50 μg/ml. The method, then:
Hepatocyte cells of Huh7it-1 [18] were cultivated in DMEM-Dulbeco’s Modiffied Eagle Medium (GIBCO Invitrogen). The medium was supplemented with 10% Fetal Bovine Serum (FBS, GIBCO-Invitrogen), 0.15 mg/ml kanamycin solution (SIGMA) and 1x Non-Essential Amino Acids (NEAA, GIBCO-Invitrogen). The cell culture was incubated in 5% CO2 at 37 °C. HCV JFH1a was propagated in Huh7it-1 suspended in 4 ml JFH1 suspension and 4 ml DMEM and was incubated at 37 °C in 5% CO2 for 4 h. The suspension was divided into eight flasks and the supernatant was harvested on the third day. The supernatant was concentrated and examined for its viral titration and stored at − 80 °C [10].
The hepatocyte cells of Huh7it-1 were seeded on a 48 well plate with a cell density of 5.4 × 10^4 and incubated for 24 h. […] The supernatant was removed and washed with medium and placed back into solutions containing the same concentrations of extract. The cultures were then incubated for 48 h and the supernatant was taken to examine the titer infection of the sample by immunostaining.
as §1

Data set [7] has as its system brine shrimp larvae. The arrangement: method as in PMID 19483341. The conditions noted are these: cited from earlier work.
The mark [8] stands for this setting: read-out: % Inhibition During inoculation.
The mark [9] stands for this setting: read-out: % Inhibition During+Post inoculation.
Where [10] appears, read: read-out: % Inhibition Post inoculation.
Setting [11] is: Huh7it-1 cells, HCV JFH1a MOI 0.1, 48 h, mean ± SD of triplicate.

Turning to `Cn1c(=O)c2c(c3ccccc31)OC(C)(C)C=C2` [N-methylflindersine], the inhibition at 25 µg/mL in data set [1] (setting [8]) turned out to be 7.7 ± 1.8%; in data set [1] (setting [9]) it was 83 ± 0.8%; in data set [1] (setting [10]), 84.1 ± 2.9%. Besides, in data set [1], the Mode of action entry was “inhibit HCV in the post-entry step; also recorded: Post-entry inhibition”. Moreover, the IC50 is less than 12 µM in data set [2] and 3.8 ± 2.7 µg/mL (≈ 15.7 µM) in data set [6] (setting [11]). The “IC50 against murine leukemia P-388 cells” value in data set [3] was 21.06 µg/mL (≈ 87.3 µM). In addition, the “HCV NS3 protein level (western blot)” value is reported as “HCV NS3 protein reduction” in data set [4], “decreased level of HCV NS3 protein expression” in data set [4] (listed as N-methylflidersine) and “decreased HCV NS3 protein level” in data set [4] (listed as N-methylflindersin). In addition, in data set [5], the CC50 at 46 h was 97 ± 3.3 µg/mL (≈ 402 µM). For the same compound, in data set [7], the “LD50 towards brine shrimp larvae” value was 1.39 µg/mL.
Regarding `COc1cc2oc(=O)ccc2c2c1C=CC(C)(C)O2` [Alloxanthoxyletin], the CC50 at 46 h in data set [5] worked out at 93 ± 3 µg/mL (≈ 360 µM). Further, in data set [6] (setting [11]), the IC50 came to 21.7 ± 2.2 µg/mL (≈ 84.1 µM).
Take `COc1cc2c(c(OC)c1C(C)=O)C=CC(C)(C)O2` [Methylevodionol]: the “IC50 against murine leukemia P-388 cells” value in data set [3] is 11.98 µg/mL (≈ 45.7 µM). In data set [5], this compound gave a CC50 at 46 h of 310 ± 2.5 µg/mL (≈ 1180 µM). Besides, the IC50 in data set [6] (48 h) is greater than 50 µg/mL. Moreover, the “Anti-HCV activity in words” value in data set [6] (Huh7it-1 cells) was “less active; also recorded: did not reveal anti-HCV activities”.
For `COc1c2c(c3c(c1C(C)=O)OC(C)(C)C=C3)OC(C)(C)C=C2` [O-methyloktadrenolon], the values for the inhibition at 25 µg/mL in data set [1] (setting [8]), in data set [1] (setting [9]) and in data set [1] (setting [10]) were 9.1 ± 8.5%, 98.4 ± 0.4% and 98 ± 0.9%, respectively. Moreover, the Mode of action result in data set [1] is given as “inhibit HCV in the post-entry step; also recorded: Post-entry inhibition”. Moreover, the “HCV NS3 protein level (western blot)” value in data set [4] is recorded as “decreased HCV NS3 protein level”. This compound yielded a CC50 at 46 h in data set [5] of 63 ± 2.3 µg/mL (≈ 200 µM). Also, the IC50 in data set [6] (setting [11]) came out at 10.9 ± 1.2 µg/mL (≈ 34.7 µM).
In the case of `COc1c2ccoc2c(OC)c2oc(=O)ccc12` [Isopimpinellin], in data set [5], the cytotoxic concentration (CC50) at 46 h is greater than 1000 µg/mL. In data set [6] (48 h), the IC50 was greater than 50 µg/mL. In data set [6] (Huh7it-1 cells), the “Anti-HCV activity in words” value is “less active; also recorded: did not reveal anti-HCV activities”.
On to `COc1cc(O)c(C(C)=O)c2c1C=CC(C)(C)O2` [Alloevodionol], for which the CC50 at 46 h in data set [5] is greater than 1000 µg/mL. Further, in data set [6] (setting [11]), the IC50 worked out at 41.1 ± 3.1 µg/mL (≈ 166 µM). The “Anti-HCV activity in words” value in data set [6] (Huh7it-1 cells) is “less active; also recorded: moderate inhibition”.
